Data as given in ChEMBL document CHEMBL3758081, “Synthesis and biological evaluation of new naphthalene substituted thiosemicarbazone derivatives as potent antifungal and anticancer agents” (Eur J Med Chem, 2016).
Values after ≈ are worked out from the molar mass of the structure shown.

Columns and labels:
Salmonella typhimurium [1] = test: Genotoxicity in Salmonella typhimurium TA1535/pSK1002 assessed as growth factor at 0.3125 mg/ml after 2 hrs by umuC assay in presence of Sprague-Dawley rat liver S9 fraction; assay type: toxicity, organism-based; details: salmonella enterica subsp. enterica serovar typhimurium, s9, 2 h
Salmonella typhimurium [2] = test: Genotoxicity in Salmonella typhimurium TA1535/pSK1002 assessed as growth factor at 0.625 mg/ml after 2 hrs by umuC assay in presence of Sprague-Dawley rat liver S9 fraction; assay type: toxicity, organism-based; details: salmonella enterica subsp. enterica serovar typhimurium, s9, 2 h
Salmonella typhimurium [3] = test: Genotoxicity in Salmonella typhimurium TA1535/pSK1002 assessed as growth factor at 1.25 mg/ml after 2 hrs by umuC assay in presence of Sprague-Dawley rat liver S9 fraction; assay type: toxicity, organism-based; details: salmonella enterica subsp. enterica serovar typhimurium, s9, 2 h
Salmonella typhimurium [4] = test: Genotoxicity in Salmonella typhimurium TA1535/pSK1002 assessed as growth factor at 2.5 mg/ml after 2 hrs by umuC assay in presence of Sprague-Dawley rat liver S9 fraction; assay type: toxicity, organism-based; details: salmonella enterica subsp. enterica serovar typhimurium, s9, 2 h
Salmonella typhimurium [5] = test: Genotoxicity in Salmonella typhimurium TA1535/pSK1002 assessed as growth factor at 5 mg/ml after 2 hrs by umuC assay in presence of Sprague-Dawley rat liver S9 fraction; assay type: toxicity, organism-based; details: salmonella enterica subsp. enterica serovar typhimurium, s9, 2 h
Salmonella typhimurium [6] = test: Genotoxicity in Salmonella typhimurium TA1535/pSK1002 assessed as growth factor at 1.25 mg/ml after 2 hrs by umuC assay in absence of Sprague-Dawley rat liver S9 fraction; assay type: toxicity, organism-based; details: salmonella enterica subsp. enterica serovar typhimurium
Salmonella typhimurium [7] = test: Genotoxicity in Salmonella typhimurium TA1535/pSK1002 assessed as growth factor at 2.5 mg/ml after 2 hrs by umuC assay in absence of Sprague-Dawley rat liver S9 fraction; assay type: toxicity, organism-based; details: salmonella enterica subsp. enterica serovar typhimurium
Salmonella typhimurium [8] = test: Genotoxicity in Salmonella typhimurium TA1535/pSK1002 assessed as growth factor at 5 mg/ml after 2 hrs by umuC assay in absence of Sprague-Dawley rat liver S9 fraction; assay type: toxicity, organism-based; details: salmonella enterica subsp. enterica serovar typhimurium
[9] = Genotoxicity in Salmonella typhimurium TA1535/pSK1002 assessed as induction ratio at 0.625 mg/ml after 2 hrs by umuC assay in presence of Sprague-Dawley rat liver S9 fraction; assay type: toxicity, organism-based; details: salmonella enterica subsp. enterica serovar typhimurium
[10] = Genotoxicity in Salmonella typhimurium TA1535/pSK1002 assessed as induction ratio at 1.25 mg/ml after 2 hrs by umuC assay in presence of Sprague-Dawley rat liver S9 fraction; assay type: toxicity, organism-based; details: salmonella enterica subsp. enterica serovar typhimurium
[11] = Genotoxicity in Salmonella typhimurium TA1535/pSK1002 assessed as induction ratio at 2.5 mg/ml after 2 hrs by umuC assay in presence of Sprague-Dawley rat liver S9 fraction; assay type: toxicity, organism-based; details: salmonella enterica subsp. enterica serovar typhimurium
[12] = Genotoxicity in Salmonella typhimurium TA1535/pSK1002 assessed as induction ratio at 0.156 mg/ml after 2 hrs by umuC assay in absence of Sprague-Dawley rat liver S9 fraction; assay type: toxicity, organism-based; details: salmonella enterica subsp. enterica serovar typhimurium
[13] = Genotoxicity in Salmonella typhimurium TA1535/pSK1002 assessed as induction ratio at 0.3125 mg/ml after 2 hrs by umuC assay in absence of Sprague-Dawley rat liver S9 fraction; assay type: toxicity, organism-based; details: salmonella enterica subsp. enterica serovar typhimurium
[14] = Genotoxicity in Salmonella typhimurium TA1535/pSK1002 assessed as induction ratio at 2.5 mg/ml after 2 hrs by umuC assay in absence of Sprague-Dawley rat liver S9 fraction; assay type: toxicity, organism-based; details: salmonella enterica subsp. enterica serovar typhimurium
Salmonella typhimurium [15] = test: Mutagenicity in Salmonella typhimurium TA98 at 0.156 mg/ml after 48 hrs by Ames MPF assay in presence of Sprague-Dawley rat liver S9 fraction; assay type: toxicity, organism-based; details: salmonella enterica subsp. enterica serovar typhimurium, s9, 48 h
Salmonella typhimurium [16] = test: Mutagenicity in Salmonella typhimurium TA98 at 0.3125 mg/ml after 48 hrs by Ames MPF assay in presence of Sprague-Dawley rat liver S9 fraction; assay type: toxicity, organism-based; details: salmonella enterica subsp. enterica serovar typhimurium, s9, 48 h
Salmonella typhimurium [17] = test: Mutagenicity in Salmonella typhimurium TA98 at 0.625 mg/ml after 48 hrs by Ames MPF assay in presence of Sprague-Dawley rat liver S9 fraction; assay type: toxicity, organism-based; details: salmonella enterica subsp. enterica serovar typhimurium, s9, 48 h
Salmonella typhimurium [18] = test: Mutagenicity in Salmonella typhimurium TA98 at 0.156 mg/ml after 48 hrs by Ames MPF assay in absence of Sprague-Dawley rat liver S9 fraction; assay type: toxicity, organism-based; details: salmonella enterica subsp. enterica serovar typhimurium
Salmonella typhimurium [19] = test: Mutagenicity in Salmonella typhimurium TA98 at 0.3125 mg/ml after 48 hrs by Ames MPF assay in absence of Sprague-Dawley rat liver S9 fraction; assay type: toxicity, organism-based; details: salmonella enterica subsp. enterica serovar typhimurium
Nakaseomyces glabratus = test: Antifungal activity against clinical isolate Candida glabrata after 48 hrs by broth microdilution method; assay type: functional
Pichia kudriavzevii = test: Antifungal activity against Candida krusei NRLL Y-7179 after 48 hrs by broth microdilution method; assay type: functional; details: NRLL Y-7179, 48 h
[Candida] zeylanoides = Antifungal activity against Candida zeylanoides NRLL Y-1774 after 48 hrs by broth microdilution method; assay type: functional; details: Dujonia zeylanoides, NRLL Y-1774, 48 h
Salmonella typhimurium [20] = test: Genotoxicity in Salmonella typhimurium TA1535/pSK1002 assessed as growth factor at 0.156 mg/ml after 2 hrs by umuC assay in absence of Sprague-Dawley rat liver S9 fraction; assay type: toxicity, organism-based; details: salmonella enterica subsp. enterica serovar typhimurium
Salmonella typhimurium [21] = test: Genotoxicity in Salmonella typhimurium TA1535/pSK1002 assessed as growth factor at 0.3125 mg/ml after 2 hrs by umuC assay in absence of Sprague-Dawley rat liver S9 fraction; assay type: toxicity, organism-based; details: salmonella enterica subsp. enterica serovar typhimurium
Salmonella typhimurium [22] = test: Mutagenicity in Salmonella typhimurium TA98 at 2.5 mg/ml after 48 hrs by Ames MPF assay in absence of Sprague-Dawley rat liver S9 fraction; assay type: toxicity, organism-based; details: salmonella enterica subsp. enterica serovar typhimurium
Salmonella typhimurium [23] = test: Mutagenicity in Salmonella typhimurium TA98 at 5 mg/ml after 48 hrs by Ames MPF assay in absence of Sprague-Dawley rat liver S9 fraction; assay type: toxicity, organism-based; details: salmonella enterica subsp. enterica serovar typhimurium
Salmonella typhimurium [24] = test: Mutagenicity in Salmonella typhimurium TA100 at 0.3125 mg/ml after 48 hrs by Ames MPF assay in presence of Sprague-Dawley rat liver S9 fraction; assay type: toxicity, organism-based; details: salmonella enterica subsp. enterica serovar typhimurium, s9, 48 h
Salmonella typhimurium [25] = test: Mutagenicity in Salmonella typhimurium TA100 at 0.625 mg/ml after 48 hrs by Ames MPF assay in presence of Sprague-Dawley rat liver S9 fraction; assay type: toxicity, organism-based; details: salmonella enterica subsp. enterica serovar typhimurium, s9, 48 h
Salmonella typhimurium [26] = test: Mutagenicity in Salmonella typhimurium TA100 at 1.25 mg/ml after 48 hrs by Ames MPF assay in presence of Sprague-Dawley rat liver S9 fraction; assay type: toxicity, organism-based; details: salmonella enterica subsp. enterica serovar typhimurium, s9, 48 h
Salmonella typhimurium [27] = test: Mutagenicity in Salmonella typhimurium TA100 at 0.3125 mg/ml after 48 hrs by Ames MPF assay in absence of Sprague-Dawley rat liver S9 fraction; assay type: toxicity, organism-based; details: salmonella enterica subsp. enterica serovar typhimurium
Salmonella typhimurium [28] = test: Mutagenicity in Salmonella typhimurium TA100 at 0.625 mg/ml after 48 hrs by Ames MPF assay in absence of Sprague-Dawley rat liver S9 fraction; assay type: toxicity, organism-based; details: salmonella enterica subsp. enterica serovar typhimurium
Salmonella typhimurium [29] = test: Mutagenicity in Salmonella typhimurium TA100 at 1.25 mg/ml after 48 hrs by Ames MPF assay in absence of Sprague-Dawley rat liver S9 fraction; assay type: toxicity, organism-based; details: salmonella enterica subsp. enterica serovar typhimurium
Salmonella typhimurium [30] = test: Mutagenicity in Salmonella typhimurium TA100 at 2.5 mg/ml after 48 hrs by Ames MPF assay in absence of Sprague-Dawley rat liver S9 fraction; assay type: toxicity, organism-based; details: salmonella enterica subsp. enterica serovar typhimurium
Salmonella typhimurium [31] = test: Mutagenicity in Salmonella typhimurium TA100 at 5 mg/ml after 48 hrs by Ames MPF assay in absence of Sprague-Dawley rat liver S9 fraction; assay type: toxicity, organism-based; details: salmonella enterica subsp. enterica serovar typhimurium
[32] = Cytotoxicity against mouse NIH/3T3 cells after 24 hrs by XTT assay; assay type: cell-based; details: NIH3T3, 24 h
A549 = test: Cytotoxicity against human A549 cells after 24 hrs by XTT assay; assay type: functional, cell-based; details: A549, 24 h

Structure (SMILES) | Activity (Salmonella typhimurium [1]) | Activity (Salmonella typhimurium [2]) | Activity (Salmonella typhimurium [3]) | Activity (Salmonella typhimurium [4]) | Activity (Salmonella typhimurium [5]) | Activity (Salmonella typhimurium [6]) | Activity (Salmonella typhimurium [7]) | Activity (Salmonella typhimurium [8]) | fold induction at 2 h, 0.625 mg/ml [9] | fold induction at 2 h, 1.25 mg/ml [10] | fold induction at 2 h, 2.5 mg/ml [11] | fold induction at 2 h, 0.156 mg/ml [12] | fold induction at 2 h, 0.3125 mg/ml [13] | fold induction at 2 h, 2.5 mg/ml [14] | fold change (FC) (Salmonella typhimurium [15]) | fold change (FC) (Salmonella typhimurium [16]) | fold change (FC) (Salmonella typhimurium [17]) | fold change (FC) (Salmonella typhimurium [18]) | fold change (FC) (Salmonella typhimurium [19]) | MIC (Nakaseomyces glabratus) [µg/mL] | also measured
Fc1ccc(F)c(/C=N/NC(=S)Nc2cccc3ccccc23)c1 | 0.23 | 0.274 | 0.121 | 0.236 | 0.228 | 0.115 | 0.137 | 0.131 | 5.34 | 2.81 | 1.39 | 1.79 | 1.3 | 1.75 | 0.65 | 1.12 | 0.28 | 0.51 | 0 | 125 (≈ 366 µM) | MIC (Pichia kudriavzevii): 250 µg/mL (≈ 732 µM); MIC ([Candida] zeylanoides): 250 µg/mL (≈ 732 µM); Activity (Salmonella typhimurium [20]): 0.142; Activity (Salmonella typhimurium [21]): 0.168; fold change (FC) (Salmonella typhimurium [22]): 0; fold change (FC) (Salmonella typhimurium [23]): 0.17; fold change (FC) (Salmonella typhimurium [24]): 0.34; fold change (FC) (Salmonella typhimurium [25]): 0.44; fold change (FC) (Salmonella typhimurium [26]): 0.44; fold change (FC) (Salmonella typhimurium [27]): 0; fold change (FC) (Salmonella typhimurium [28]): 0.18; fold change (FC) (Salmonella typhimurium [29]): 0.36; fold change (FC) (Salmonella typhimurium [30]): 0.48; fold change (FC) (Salmonella typhimurium [31]): 0.36; IC50 [32]: > 500 µg/mL; IC50 (A549): 500 µg/mL (≈ 1460 µM)
Fc1cccc(/C=N/NC(=S)Nc2cccc3ccccc23)c1F | 0.121 | 0.236 | 0.228 | 0.231 | 0.24 | 0.131 | 0.311 | 0.146 | 1.39 | 1.42 | 3.99 | 6 | 1.79 | 5.25 | 0.94 | 0.84 | 0.84 | 0.17 | 0 | 125 (≈ 366 µM) | MIC (Pichia kudriavzevii): 250 µg/mL (≈ 732 µM); MIC ([Candida] zeylanoides): 250 µg/mL (≈ 732 µM); Activity (Salmonella typhimurium [20]): 0.14; Activity (Salmonella typhimurium [21]): 0.115; fold change (FC) (Salmonella typhimurium [22]): 0; fold change (FC) (Salmonella typhimurium [23]): 0.34; fold change (FC) (Salmonella typhimurium [24]): 1.07; fold change (FC) (Salmonella typhimurium [25]): 0.92; fold change (FC) (Salmonella typhimurium [26]): 0.68; fold change (FC) (Salmonella typhimurium [27]): 0.36; fold change (FC) (Salmonella typhimurium [28]): 0.42; fold change (FC) (Salmonella typhimurium [29]): 0.42; fold change (FC) (Salmonella typhimurium [30]): 0.18; fold change (FC) (Salmonella typhimurium [31]): 0.42; IC50 [32]: > 500 µg/mL; IC50 (A549): 500 µg/mL (≈ 1460 µM)
